Measured values from patent publication US10258613B2, “Compositions for treating retinal degeneration and methods of production and use thereof” (The Board of Regents of the University of Oklahoma, priority 2014, dated 2019).
Entries after “also recorded” stand apart in the source; their conditions may differ.

Tests used:
cones in Rpe65−/− mice = assay: Cone density after intravitreal injection of TR antagonists; assay type: in vivo, mouse; details: for cone death, in words: intravitreal delivery; for cone density increase: intravitreal injection at P5 (1.0 μl of 5 mM NH-3 or 10 mM 1-850), collected P24; for cone protection, in words: intravitreal injection at P5, P24, PNA staining
Method: (§1) The cornea and lens were then removed, and the eyes were fixed in 4% PFA in PBS (vol/vol) at room temperature for another 4-6 hours. […] Paraffin sections (5 μm thickness) passing vertically through the retina (along the vertical meridian passing through the optic nerve head) were prepared using a Leica microtome.
Briefly, retinal whole mounts or sections were blocked in Hank's balanced salt solution containing 5% bovine serum albumin (BSA) and 0.5% Triton-X 100 for 1 hour at room temperature. Primary antibody incubation (anti-M-opsin, 1:500; anti-S-opsin, 1:500; anti-CAR, 1:500; and anti-GNAT2, 1:500) was performed at room temperature for 1 hour. […] PNA immunohistochemistry was performed using biotinylated PNA (1:50) and streptavidin-FITC (1:200). […] For retinal whole mounts, images were taken using a 40× objective on an Olympus microscope, approximately 1.0 mm from the optic nerve in the center of each quadrant (FIG. 1). […] Cone density on retinal cross section was evaluated by counting the number of cones present in the dorsal and ventral areas. The averages of the counts were analyzed and graphed using GraphPad Prism software (GraphPad Software, San Diego, Calif.).
(§2) The cone precursor Weri RB-1 cell line was used to determine the antagonistic activity of the TR antagonists, NH-3 and 1-850. Expression levels of M-opsin and S-opsin in Weri cells following T3 treatment in the presence and absence of TR antagonists were analyzed by quantitative RT-PCR. […] NH-3, 1-850, or vehicle was delivered to the eye by intravitreal injection at postnatal day 5 (P5), and retinas and eyes were collected on P24. Cone survival was evaluated by examining cone density on retinal whole mounts and retinal sections by immunohistochemical approaches.

Weri RB-1 cell line = assay: M-opsin and S-opsin expression (quantitative RT-PCR) after T3 with or without TR antagonists; assay type: cell-based; details: Weri cells; for inhibition of T3-induced M-opsin expression / inhibition of the effects of T3 treatment on M-opsin and S-opsin expression: dose-dependent pattern
Method: as §2

[1] = tested on: rod photoreceptors in Cngb3−/− mice; assay: Retinal morphometric analysis (ONL nuclei count, ONL thickness) after T3 treatment; assay type: in vivo, mouse
Method: (§3) For anti-thyroid treatment, mother Rpe65^−/− and cpfl1 mice were treated with methimazole (MMI) (Sigma-Aldrich, St. Louis, Mo., 0.05% wt/vol) and sodium perchlorate monohydrate (PM) (Sigma-Aldrich, 1.0% wt/vol) in drinking water, beginning on the day they delivered pups and the treatment (for both mother and pups) continued for 30 days. In a separate experiment, post-weaning cpfl1 mice received MMI and PM treatment for 30 days, beginning on P25. For T3 treatment, Cngb3^−/− and Gucy2e^−/− mice received T3 (Sigma-Aldrich, 0.1 μg/g body weight, subcutaneous injection once each day) or vehicle (saline) for 30 days, beginning on P1. At the end of the treatments, blood samples were collected for measurements of serum T3 levels, and eyes and retinas were collected for evaluating cone density and cone specific protein/mRNA expression. For T3-treated mice, blood samples were collected around 24 hours after the last injection.
as §1, with “Mouse retinal whole mounts or cross sections were prepared for immunohistochemical analysis as described previously (Ding et al., 2009; and Xu et al., 2011). […] The” for “The”
(§4) Retina cross sections labeled with DAPI (Vector Laboratory Inc., Burlingame, Calif.) were used for morphometric analysis to evaluate outer nuclear layer (ONL) integrity/rod survival as described previously (Xu et al., 2012). In each hemisphere, the number of nuclei in the ONL and the thickness of the ONL were measured at 0.24 mm intervals in nine defined areas, starting at the optic nerve head and extending along the vertical meridian toward the dorsal and ventral ora serrata. The mean number of nuclei and ONL thickness at the dorsal and ventral locations was then calculated. In each experimental group, two-three sections from each of the retinas of three-four mice were measured. The averages of the measurements in each location were plotted, and the measurements in each hemisphere were analyzed and graphed using GraphPad Prism software (GraphPad Software, San Diego, Calif.).

[2] = tested on: rod photoreceptors in Gucy2e−/− mice; assay: as above; assay type: in vivo, mouse
Method: as §3
as §1, with “Mouse retinal whole mounts or cross sections were prepared for immunohistochemical analysis as described previously (Ding et al., 2009; and Xu et al., 2011). […] The” for “The”
as §4

[3] = Serum T3 levels by mouse/rat T3 ELISA in anti-thyroid- or T3-treated mice; assay type: in vivo; details: for increase of serum T3 levels compared with untreated controls: around 24 hours after last injection; for concentration at 24 h: mouse, serum, sc, 0.1 μg/g body weight, T3 0.1 μg/g s.c. once each day 30 days from P1, around 24 hours after last injection
Method: as §3
Serum triiodothyronine (T3) levels were analyzed using a mouse/rat T3 ELISA kit (Calbiotech Inc., Spring Valley, Calif.) with a total T3 detection limit at 0.25 ng/ml. Briefly, 25 μl of serum samples and standards with different T3 concentrations were added into the assigned wells, the assays were performed by following the manufacturer's instructions, and the absorbance of each well was read at 450 nm (SPECTRAMAX® 190 Microplate Spectrophotometer, Molecular Devices LLC, Sunnyvale, Calif.). The standard curve was generated by using a three-parameter exponential non-linear regression in SIGMAPLOT® software (Systat Software, Inc., San Jose, Calif.), and the sample T3 concentration was then calculated according to the three-parameter exponential equation.

cones in Gucy2e−/− mice = assay: Cone density by immunofluorescence labeling after T3 treatment; assay type: in vivo, mouse
Method: as §3
as §1, with “Mouse retinal whole mounts or cross sections were prepared for immunohistochemical analysis as described previously (Ding et al., 2009; and Xu et al., 2011). […] The” for “The”
(§5) Immunohistochemical labeling of cones using antibodies against peanut agglutinin (PNA), cone opsin, cone arrestin (CAR), and guanine nucleotide-binding protein G(t) subunit alpha-2 (GNAT2) was performed as described previously (Ding et al., 2009). Briefly, retinal whole mounts or sections were blocked in Hank's balanced salt solution containing 5% bovine serum albumin (BSA) and 0.5% Triton-X 100 for 1 hour at room temperature. Primary antibody incubation (anti-M-opsin, 1:500; anti-S-opsin, 1:500; anti-CAR, 1:500; and anti-GNAT2, 1:500) was performed at room temperature for 1 hour. Following ALEXA FLUOR®-488 or -568 (Molecular Probes, Inc., Eugene, Oreg.) or FITC-conjugated secondary antibody incubation and rinses, slides were mounted and cover-slipped. PNA immunohistochemistry was performed using biotinylated PNA (1:50) and streptavidin-FITC (1:200). Fluorescent signals were imaged using an Olympus AX70 fluorescence microscope (Olympus Corp., Center Valley, Pa.) with QCapture imaging software (QImaging Corp., Surrey, BC, Canada) or an Olympus IX81-FV500 confocal laser scanning microscope (Olympus, Melville, N.Y.) (using excitation wavelengths of 543 nm for ALEXA FLUOR®-568 and 488 nm for FITC) and FLUOVIEW® imaging software (Olympus, Melville, N.Y.). Evaluation of cone density on retinal whole mounts and retinal cross-sections was performed as described previously (Xu et al., 2011; and Komeima et al., 2006). For retinal whole mounts, images were taken using a 40× objective on an Olympus microscope, approximately 1.0 mm from the optic nerve in the center of each quadrant (FIG. 1). Image scale was calibrated and cones were counted in four regions, each with dimensions of 317 μm×317 μm, using ImageJ software (ImageJ software website from National Institutes of Health, Bethesda, Md.). Cone density on retinal cross section was evaluated by counting the number of cones present in the dorsal and ventral areas. The averages of the counts were analyzed and graphed using GraphPad Prism software (GraphPad Software, San Diego, Calif.).

cones in Cngb3−/− mice = assay: as above; assay type: in vivo, mouse
Method: as §3
as §1, with “Mouse retinal whole mounts or cross sections were prepared for immunohistochemical analysis as described previously (Ding et al., 2009; and Xu et al., 2011). […] The” for “The”
as §5

cones = details: mice; effect reversed by deletion of TRβ2 gene; cited from earlier work
[4] = T3 0.1 μg/g s.c. daily 30 days from P1

Cc1cc(OCC(=O)O)cc(C)c1Cc1cc(C#Cc2ccc([N+](=O)[O-])cc2)c(O)c(C(C)C)c1 [NH-3]
cone death, in words (cones in Rpe65−/− mice): reduced cone death
cone density increase (cones in Rpe65−/− mice): about 35%
cone protection, in words (cones in Rpe65−/− mice): protected cones
inhibition of T3-induced M-opsin expression (Weri RB-1 cell line): inhibited T3-induced M-opsin expression
inhibition of the effects of T3 treatment on M-opsin and S-opsin expression (Weri RB-1 cell line): inhibited

O=C(C=C1CCN(c2ccc([N+](=O)[O-])cc2)CC1)NNC(=O)Nc1cccc(C(F)(F)F)c1 [1-850]
cone death, in words (cones in Rpe65−/− mice): reduced cone death
cone density increase (cones in Rpe65−/− mice): about 35%
cone protection, in words (cones in Rpe65−/− mice): protected cones
inhibition of T3-induced M-opsin expression (Weri RB-1 cell line): inhibited T3-induced M-opsin expression
inhibition of the effects of T3 treatment on M-opsin and S-opsin expression (Weri RB-1 cell line): inhibited

N[C@@H](Cc1cc(I)c(Oc2ccc(O)c(I)c2)c(I)c1)C(=O)O [T3, Triiodothyronine]
reduction of average number of nuclei in the ONL vs untreated controls ([1]; T3 30 days): about 30%
rod photoreceptor viability, in words ([1]; T3 30 days from P1): causes rod degeneration
reduction of average number of nuclei in the ONL vs untreated controls ([2]; T3 30 days): about 30%
rod photoreceptor viability, in words ([2]; T3 30 days from P1): causes rod degeneration
increase of serum T3 levels compared with untreated controls ([3]; Cngb3−/− mice): about 8 fold
increase of serum T3 levels compared with untreated controls ([3]; Gucy2e−/− mice): about 6 fold
concentration at 24 h ([3]; Cngb3−/− mice): 3.85 ± 0.55 nM
concentration at 24 h ([3]; Gucy2e−/− mice): 3.43 ± 0.48 nM
reduction of density of cones labeled by CAR vs untreated controls (cones in Gucy2e−/− mice; [4]): about 30%
reduction of density of cones labeled by PNA vs untreated controls (cones in Gucy2e−/− mice; [4]): about 30%
reduction of density of cones labeled by cone opsin vs untreated controls (cones in Gucy2e−/− mice; [4]): about 30%
cone degeneration / cone density, in words (cones in Gucy2e−/− mice; T3 30 days from P1): significantly increased; also recorded: significantly diminished cone density; also recorded: deteriorated cones
cone density decrease (cones in Gucy2e−/− mice; summary statement): about 40%
reduction of CAR-labeled cones vs untreated (cones in Cngb3−/− mice; [4]): about 40%
reduction of PNA-labeled cones vs untreated (cones in Cngb3−/− mice; [4]): about 30%
M-opsin labeled-cones vs untreated controls (cones in Cngb3−/− mice; T3 30 days from P1): greatly reduced
S-opsin labeled-cones vs untreated controls (cones in Cngb3−/− mice; T3 30 days from P1): greatly reduced
cone degeneration / cone density, in words (cones in Cngb3−/− mice; T3 30 days from P1): significantly increased; also recorded: significantly reduced; also recorded: deteriorated cones
cone density decrease (cones in Cngb3−/− mice; summary statement): about 40%
M-opsin expression (Weri RB-1 cell line; T3 treatment): increased M-opsin expression
S-opsin expression (Weri RB-1 cell line; T3 treatment): decreased S-opsin expression
cone viability (cones): cause cone death
